The text below walks through data of US20080293782A1, “1,1,3-Trioxo-1,2,5-Thiadiazolidines and Their Use as Ptp-Ases Inhibitors” (priority 2005, published 2008).

One data set deals with T1, human PTP-1B (Homo sapiens, UniProt P18031).
T1 construct: recombinant human PTP-1B[1-298] or PTP-1B[1-322]
T1 sequence (P18031 1-298 limits assumed): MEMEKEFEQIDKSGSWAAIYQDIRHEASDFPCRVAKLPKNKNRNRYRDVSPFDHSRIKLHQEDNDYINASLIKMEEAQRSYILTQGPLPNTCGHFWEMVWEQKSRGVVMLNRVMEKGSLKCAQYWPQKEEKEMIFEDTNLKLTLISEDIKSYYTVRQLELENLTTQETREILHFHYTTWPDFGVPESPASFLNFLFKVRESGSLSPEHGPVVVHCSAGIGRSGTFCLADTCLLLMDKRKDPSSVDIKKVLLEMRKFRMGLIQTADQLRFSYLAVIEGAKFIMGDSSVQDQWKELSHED
The data set is described as follows: inhibitory activity (IC50) to human PTP-1B. Format: biochemical. The protocol:
For example, the PTP-1B inhibitory activity in vitro may be determined as follows:
Assessment of human PTP-1B (hPTP-1B) activity in the presence of various agents is determined by measuring the amount of inorganic phosphate released from a phosphopeptide substrate using a 96-well microtiter plate format. The assay (100 μL) is performed in an assay buffer comprised of 50 mM TRIS (pH 7.5), 50 mM NaCl, 3 mM DTT at ambient temperature. The assay is typically performed in the presence of 0.4% dimethyl sulfoxide (DMSO). However, concentrations as high as 10% are used with certain poorly soluble compounds. […] Inorganic phosphate, a product of the enzyme reaction, is quantitiated after 15 min as the green color resulting from complexing with the Malichite reagent and is determined as an A620 using a Molecular Devices (Sunnyvale, Calif.) SpectraMAX Plus spectrophotometer. […] Activity is defined as the net change in absorbance resulting from the activity of the uninhibited hPTP-1B[1-411] minus that of a tube with acid-inactivated hPTP-1B[1-411]. […]
Alternatively, the assessment of human PTP-1B activity in the presence of various agents may be determined by measuring the hydrolysis products of known competing substrates. […]

As for `O=C1CN(c2cc(-c3cn[nH]c3)ccc2O)S(=O)(=O)N1` [Example No. 2-5, 5-[2-Hydroxy-5-(1H-pyrazol-4-yl)-phenyl]-1,1-dioxo-1,2,5-thiadiazolidin-3-one], half-maximal inhibition against human PTP-1B (IC50) required 80 nM.
On to `N#CCCCn1cc(-c2ccc(O)c(N3CC(=O)NS3(=O)=O)c2)cn1` [Example No. 13-7, 4-{4-[4-Hydroxy-3-(1,1,4-trioxo-1,2,5-thiadiazolidin-2-yl)-phenyl]-1H-pyrazol-1-yl}-butyronitrile], for which half-maximal inhibition at human PTP-1B (IC50) was put at 86 nM.
On to `O=C1CN(c2cc(Oc3ccccc3)ccc2O)S(=O)(=O)N1` [Example 14, 5-(2-Hydroxy-5-phenoxyphenyl)-1,1-dioxo-1,2,5-thiadiazolidin-3-one], for which the melting point (usually the temperature of the solid-liquid transition) fell in the range of 153 to 157 °C.
